Results on 4 molecules are retold here after patent publication US20150045424A1, “COMPOSITION USEFUL FOR THE TREATMENT OF TYPE 2 DIABETES” (SIGMA-TAU INDUSTRIE FARMACEUTICHE RIUNITE S.P.A., priority 2007, published 2015).

Holding throughout (format): in vivo, mouse
Assay [1] deals with C57BL/KsJ db/db mice. As to the kind of experiment: Blood glucose levels of db/db mice (feeding, post-absorption, fasting). The settings on record: n=6. The source says: A much used genetically diabetic mouse model is the C57BL/KsJ db/db mouse.
The genetic basis of this model is a defect in the leptin receptor gene which gives rise to leptin resistance and leads to hyperphagia, obesity, hyperinsulinaemia and insulin resistance, with subsequent symptoms of insufficient insulin secretion and hyperglycaemia (Kodama et al., Diabetologia 37: 739-744, 1994; Chen et al, Cell 84: 491-495, 1996).
(§1) The C57BL/KsJ db/db mice used in the experiments were supplied by Jackson Lab (via Ch. River). After 10 days of acclimatisation in standard conditions (22±2 [deg.]C.; 55±15% humidity; 15-20 air changes/hour; 12 hour light-darkness cycle with light from 7 a.m. to 7 p.m.) on a standard 4 RF21 diet (Mucedola), blood samples were taken in post-absorption conditions (fasting from 8.30 a.m. to 4.30 p.m.) from the caudal vein with the aid of a Jelco 22G catheter (Johnson and Johnson). Glucose, insulin, triglyceride, cholesterol, free fatty acid and urea levels were checked in the plasma to ensure well-matched distribution of the mice in the treatment groups.
At the start of treatment, the body weight of the animals was checked and monitoring of the animals' consumption of water and feed was scheduled.
(§2) The mice were divided into groups and treated orally twice daily with:
(§3) Simvastatin 100 mg/kg; L-carnitine inner salt 400 mg/kg; acetyl L-carnitine HCl 592 mg/kg (equimolar amount respect to L-carnitine); propionyl L-carnitine HCl 627 mg/kg (equimolar amount respect to L-carnitine); L-carnitine inner salt 400 mg/kg+Simvastatin 100 mg/kg; acetyl L-carnitine HCl 592 mg/kg+Simvastatin 100 mg/kg; propionyl L-carnitine HCl 627 mg/kg+Simvastatin 100 mg/kg.
(§4) In the course of the experiment, serum glucose levels, glucose tolerance (OGTT), a number of lipid status variables and weight gain were monitored.

The subject of assay [2] is C57BL/KsJ db/db mice. The assay can be described thus: Oral glucose tolerance test (OGTT) in db/db mice. The settings on record: oral twice daily for 18 days, OGTT glucose 3 g/kg, fasted 18 hours, 5 hours after last treatment, n=6. As for the experimental part: as §1, §2, §3, §4
Assay [3] concerns C57BL/KsJ db/db mice. As to the kind of experiment: Plasma fructosamine levels of db/db mice (indicator of protein glycosylation). The settings on record: oral twice daily for 25 days, post-absorption (fasting 9 a.m. to 4.30 p.m.), 7.5 hours after last treatment, n=6. As for the experimental part: as §1, §2, §3, §4
The test system of assay [4] is C57BL/KsJ db/db mice. As to the kind of experiment: Plasma triglyceride levels of db/db mice. The settings on record: oral twice daily for 25 days, post-absorption (fasting 9 a.m. to 4.30 p.m.), 7.5 hours after last treatment, n=6. As for the experimental part:
as §1, §2, §3, §4

The test system of assay [5] is C57BL/KsJ db/db mice. The assay can be described thus: Plasma HDL-cholesterol levels of db/db mice. The note with it: oral twice daily for 25 days, post-absorption (fasting 9 a.m. to 4.30 p.m.), 7.5 hours after last treatment, n=6. As for the experimental part:
as §1, §2, §3, §4

[6] abbreviates: oral twice daily for 12 days, blood sample in feeding condition, approximately 15 hours after last treatment.
The mark [7] stands for this setting: oral twice daily for 12 days, post-absorption condition (fasting 9 a.m. to 5 p.m.), 8 hours after last treatment.
[8] abbreviates: oral twice daily for 18 days, fasted for 18 hours, 5 hours after last treatment.

Regarding `CC(=O)O[C@H](CC(=O)[O-])C[N+](C)(C)C` [Acetyl L-carnitine, acetyl L-carnitine], the figures for the “Glucose Mean values” in assay [1] (setting [6]), in assay [1] (setting [7]) and in assay [1] (setting [8]) were 468.0 mg/dL, 416.1 mg/dL and 332.0 mg/dL, respectively. The “AUC Glucose (OGTT) Mean values” in assay [2] was 49332.3 u.a. Moreover, in assay [3], the “Fructosamine Mean values” was 0.85 mM. The “Triglycerides Mean values” in assay [4] came to 85.6 mg/dL. Also, in assay [5], the “HDL-cholesterol Mean values” stood at 84.5 mg/dL.
Turning to `C[N+](C)(C)C[C@H](O)CC(=O)[O-]` [L-carnitine], the “Glucose Mean values” in assay [1] (setting [6]) worked out at 470.0 mg/dL; in assay [1] (setting [7]), 416.5 mg/dL; in assay [1] (setting [8]), 324.8 mg/dL. For the same molecule, the “AUC Glucose (OGTT) Mean values” in assay [2] is given as 50187.8 u.a. Further, the “Fructosamine Mean values” in assay [3] was found to be 0.81 mM. The “Triglycerides Mean values” in assay [4] came to 85.7 mg/dL. The “HDL-cholesterol Mean values” in assay [5] came out at 84.0 mg/dL.
Turning to `CCC(=O)O[C@H](CC(=O)[O-])C[N+](C)(C)C` [Propionyl L-carnitine, propionyl L-carnitine], the “Glucose Mean values” in assay [1] (setting [6]) was found to be 475.5 mg/dL; in assay [1] (setting [7]), 411 mg/dL; in assay [1] (setting [8]), 328.6 mg/dL. Besides, in assay [2], the “AUC Glucose (OGTT) Mean values” is recorded as 49005.5 u.a. The “Fructosamine Mean values” in assay [3] came out at 0.81 mM. For the same molecule, the “Triglycerides Mean values” in assay [4] was determined as 86.2 mg/dL. In addition, in assay [5], the “HDL-cholesterol Mean values” came to 80.9 mg/dL.
Take `CCC(C)(C)C(=O)O[C@H]1C[C@@H](C)C=C2C=C[C@H](C)[C@H](CC[C@@H]3C[C@@H](O)CC(=O)O3)[C@H]21` [Simvastatin]: the results for the “Glucose Mean values” in assay [1] (setting [6]), in assay [1] (setting [7]) and in assay [1] (setting [8]) were 465.0 mg/dL, 418.1 mg/dL and 328.3 mg/dL, respectively. Also, the “AUC Glucose (OGTT) Mean values” in assay [2] was 50973.3 u.a. In addition, the “Fructosamine Mean values” in assay [3] is recorded as 0.76 mM. The “Triglycerides Mean values” in assay [4] was 83.6 mg/dL. Also, in assay [5], the “HDL-cholesterol Mean values” was found to be 74.5 mg/dL.
